Laboratory results as given in ChEMBL document CHEMBL1201862, “PubChem BioAssay data set” (2004).
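A five-concentration, 48-hour dose response in 96-well plates underlies each endpoint, interpolated linearly between surrounding concentrations. GI50 is the concentration that inhibits growth by half.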 The source made the active and inactive calls. No stated cut-off is given here; in the data, active = GI50 up to about 1.1 µM and inactive = higher.

How the values were obtained:
Assay in all cases: DTP human tumour cell line panel, 48 h
SR = tested on: SR
786-0 = tested on: 786-0
TK-10 = tested on: TK-10
PC-3 = tested on: PC-3
SK-MEL-2 = tested on: SK-MEL-2
UACC-257 = tested on: UACC-257
M14 = tested on: M14
SF-268 = tested on: SF-268
Hs-578T = tested on: Hs-578T
SK-MEL-28 = tested on: SK-MEL-28
SW-620 = tested on: SW-620
OVCAR-8 = tested on: OVCAR-8
SK-MEL-5 = tested on: SK-MEL-5
MDA-N = tested on: MDA-N
MDA-MB-231 = tested on: MDA-MB-231
MCF7 = tested on: MCF7
COLO 205 = tested on: COLO 205
MDA-MB-435 = tested on: MDA-MB-435
NCI-H226 = tested on: NCI-H226
A549 = tested on: A549
HT-29 = tested on: HT-29
HL-60 = tested on: HL-60
HCT-116 = tested on: HCT-116
BT-549 = tested on: BT-549
OVCAR-3 = tested on: OVCAR-3
SF-539 = tested on: SF-539
ACHN = tested on: ACHN
IGROV-1 = tested on: IGROV-1
HOP-92 = tested on: HOP-92
Malme-3M = tested on: Malme-3M
DU-145 = tested on: DU-145
T47D = tested on: T47D
UO-31 = tested on: UO-31
UACC-62 = tested on: UACC-62
EKVX = tested on: EKVX
CAKI-1 = tested on: CAKI-1
NCI-H460 = tested on: NCI-H460
RPMI-8226 = tested on: RPMI-8226
SNB-19 = tested on: SNB-19
SNB-75 = tested on: SNB-75
SN12C = tested on: SN12C
A498 = tested on: A498
HCC 2998 = tested on: HCC 2998
U-251 = tested on: U-251
OVCAR-4 = tested on: OVCAR-4
SF-295 = tested on: SF-295
LOX IMVI = tested on: LOX IMVI
HCT-15 = tested on: HCT-15
K562 = tested on: K562
NCI/ADR-RES = tested on: NCI/ADR-RES
KM12 = tested on: KM12
MOLT-4 = tested on: MOLT-4
CCRF-CEM = tested on: CCRF-CEM
NCI-H522 = tested on: NCI-H522
OVCAR-5 = tested on: OVCAR-5
NCI-H23 = tested on: NCI-H23

SMILES: COC(=O)C1C(O)C(C)C(O)C(C)/C=C\C=C(C)C(=O)Nc2c(C)c(OC(C)=O)c3c(c2O)C(=O)C(C)=C2OCOC(=C23)C(C)=CC(C)(O)C(O)C(C)C1O (stereo not drawn)
- GI50 (SR): 96.4 µM (inactive)
- GI50 (786-0): > 100 µM (inactive)
- GI50 (TK-10): > 100 µM (inactive)
- GI50 (PC-3): > 100 µM (inactive)
- GI50 (SK-MEL-2): 32.3 µM (inactive)
- GI50 (UACC-257): 23 µM (inactive)
- GI50 (M14): 38.9 µM (inactive)
- GI50 (SF-268): 68.4 µM (inactive)
- GI50 (Hs-578T): > 100 µM (inactive)
- GI50 (SK-MEL-28): 47 µM (inactive)
- GI50 (SW-620): 35.5 µM (inactive)
- GI50 (OVCAR-8): 34 µM (inactive)
- GI50 (SK-MEL-5): 41.2 µM (inactive)
- GI50 (MDA-N): 59.8 µM (inactive)
- GI50 (MDA-MB-231): 24.9 µM (inactive)
- GI50 (MCF7): 35.6 µM (inactive)
- GI50 (COLO 205): 20.4 µM (inactive)
- GI50 (MDA-MB-435): 68.4 µM (inactive)
- GI50 (NCI-H226): > 100 µM (inactive)
- GI50 (A549): > 100 µM (inactive)
- GI50 (HT-29): 42.5 µM (inactive)
- GI50 (HL-60): 29.4 µM (inactive)
- GI50 (HCT-116): 30.3 µM (inactive)
- GI50 (BT-549): > 100 µM (inactive)
- GI50 (OVCAR-3): 24.3 µM (inactive)
- GI50 (SF-539): > 100 µM (inactive)
- GI50 (ACHN): > 100 µM (inactive)
- GI50 (IGROV-1): 87.1 µM (inactive)
- GI50 (HOP-92): 60.4 µM (inactive)
- GI50 (Malme-3M): 36.5 µM (inactive)
- GI50 (DU-145): > 100 µM (inactive)
- GI50 (T47D): 52.2 µM (inactive)
- GI50 (UO-31): 82.4 µM (inactive)

SMILES: C=C(C)C(=O)O[C@H]1CC2=CC(CC(C)=C[C@H]3OC(=O)C(=C)C13)OC2=O (stereo partly drawn)
- GI50 (786-0): 9.08 µM (inactive)
- GI50 (TK-10): 8.02 µM (inactive)
- GI50 (UACC-62): 17.4 µM (inactive)
- GI50 (EKVX): 20.6 µM (inactive)
- GI50 (CAKI-1): 17.2 µM (inactive)
- GI50 (PC-3): 23 µM (inactive)
- GI50 (SK-MEL-2): 22.1 µM (inactive)
- GI50 (NCI-H460): 31.1 µM (inactive)
- GI50 (UACC-257): 25.5 µM (inactive)
- GI50 (M14): 29.4 µM (inactive)
- GI50 (RPMI-8226): 2.93 µM (inactive)
- GI50 (SNB-19): > 100 µM (inactive)
- GI50 (SF-268): 20.6 µM (inactive)
- GI50 (Hs-578T): 99.1 µM (inactive)
- GI50 (SK-MEL-28): 14.1 µM (inactive)
- GI50 (SW-620): 11.8 µM (inactive)
- GI50 (OVCAR-8): 35.8 µM (inactive)
- GI50 (SNB-75): > 100 µM (inactive)
- GI50 (SN12C): 22.1 µM (inactive)
- GI50 (SK-MEL-5): 68.2 µM (inactive)
- GI50 (MDA-N): 24.4 µM (inactive)
- GI50 (A498): 35.8 µM (inactive)
- GI50 (HCC 2998): 35 µM (inactive)
- GI50 (MDA-MB-231): 25.2 µM (inactive)
- GI50 (U-251): > 100 µM (inactive)
- GI50 (MCF7): 13.1 µM (inactive)
- GI50 (COLO 205): 14.5 µM (inactive)
- GI50 (OVCAR-4): 34.8 µM (inactive)
- GI50 (MDA-MB-435): 29.3 µM (inactive)
- GI50 (NCI-H226): > 100 µM (inactive)
- GI50 (A549): > 100 µM (inactive)
- GI50 (HT-29): 17 µM (inactive)
- GI50 (HL-60): 3.65 µM (inactive)
- GI50 (SF-295): > 100 µM (inactive)
- GI50 (HCT-116): 10.8 µM (inactive)
- GI50 (LOX IMVI): 21 µM (inactive)
- GI50 (BT-549): 16.3 µM (inactive)
- GI50 (OVCAR-3): 24.7 µM (inactive)
- GI50 (SF-539): 29.7 µM (inactive)
- GI50 (ACHN): 13.2 µM (inactive)
- GI50 (HCT-15): 10.8 µM
- GI50 (IGROV-1): 33 µM (inactive)
- GI50 (K562): 7.74 µM (inactive)
- GI50 (HOP-92): 16.4 µM (inactive)
- GI50 (Malme-3M): 20.2 µM (inactive)
- GI50 (NCI/ADR-RES): 38.3 µM (inactive)
- GI50 (KM12): 20.3 µM (inactive)
- GI50 (MOLT-4): 19.8 µM (inactive)
- GI50 (CCRF-CEM): 4.74 µM (inactive)
- GI50 (NCI-H522): 2.53 µM (inactive)
- GI50 (DU-145): 15.5 µM (inactive)
- GI50 (T47D): 11.2 µM (inactive)
- GI50 (OVCAR-5): 33.7 µM (inactive)
- GI50 (NCI-H23): 39.3 µM (inactive)
- GI50 (UO-31): > 10 µM (inactive)
